Reference: patent publication US20130150399A1, “INHIBITORS OF THE UNFOLDED PROTEIN RESPONSE AND METHODS FOR THEIR USE” (The Board of Trustees of the Leland Stanford Junior …, priority 2006, published 2013)

Key:
ATF6 = assay: Western blot of ATF6 cleavage, hypoxic HT1080 cells; type: cell-based, human; settings: 2.5 μM
Description: Cells (2×10^6) were cultured in 10-cm dishes, collected using a cell scraper at 4° C., and lysed by addition of 150 μl cell lysis buffer [50 mM Tris pH 7.4, 150 mM NaCl, 10% glycerol, 0.5% Triton X-100. 0.5% NP-40, 2 mM Na3VO4, 20 mM beta-glycerophosphate, 10 mM NaF, 1 mM DTT, 1 mM PMSF). Lysates were centrifuged for 5 min at 10,000×g, and proteins (˜40 μg) were resolved by SDS-PAGE followed by semi-dry transfer to nitrocellulose membranes. Membranes were blocked in TBS-5% milk supplemented with 0.1% Tween-20. The blots were then probed overnight with relevant antibodies, washed, and incubated for 2 hours with species-specific secondary antibodies conjugated to horseradish peroxidase. After washing in block solution, immunoreactive material was detected by enhanced chemiluminescence (SuperSignal West Dura Extended, Pierce, Inc., Rockville, Ill.).
A. Effect of irestatin 9389 on PERK and ATF6 pathways. […] Protein lysates were analyzed by Western blot analysis using antisera specific for ATF6 (top), CHOP/GADD153 (middle) or actin (bottom). […] Cells were harvested, counted, and allowed to grow under normal culture conditions for 11-12 days. […] D. Quantification of clonogenic survival assay. […] F. Quantification of TUNEL-positive cells. […] Cells were harvested at the indicated times and counted by hemocytometer. Values represent the mean calculated from triplicate experiments+/−SEM. […]

[1] = tested on: HT1080 tet-off Flag-XBP-1s cells; assay: Colony formation of HT1080 tet-off Flag-XBP-1s cells under hypoxia; type: cell-based, human; settings: 2.5 μM, hypoxia 48 hours
Description: A. Effect of irestatin 9389 on PERK and ATF6 pathways. HT1080 cells were treated with vehicle alone (lanes 1-4) or 2.5 μM irestatin 9389 (lanes 5-8) and cultured under aerobic conditions for 18 hours (N) or shifted to hypoxia for the indicated times. Protein lysates were analyzed by Western blot analysis using antisera specific for ATF6 (top), CHOP/GADD153 (middle) or actin (bottom). Arrow indicates the cleaved, transcriptionally active form of ATF6. B. Cleavage of caspase-3 in irestatin-treated cells under hypoxia. HT1080 cells were cultured in normoxia (N) or under hypoxia for 36 hours (H 36) in absence or presence of irestatin 9389 (2.5 μM). Arrows indicate proteolytically cleaved caspase-3. C. Colony formation assay. HT1080 cells were treated as in B under normoxia (N) or hypoxia for 48 hours (H 48). Cells were harvested, counted, and allowed to grow under normal culture conditions for 11-12 days. Colonies were visualized with crystal violet staining. D. Quantification of clonogenic survival assay. Values represent the mean+/−SEM from at least 4 independent experiments. E. TUNEL staining of cells treated as in C. F. Quantification of TUNEL-positive cells. Values represent the mean+/− SEM from at least 3 experiments. […] Cells were harvested at the indicated times and counted by hemocytometer. Values represent the mean calculated from triplicate experiments+/−SEM. […]

HT1080 fibrosarcoma = assay: Cell proliferation assay, HT1080; type: cell-based, human; settings: normal conditions; same concentrations
Description: A. Effect of irestatin 9389 on PERK and ATF6 pathways. HT1080 cells were treated with vehicle alone (lanes 1-4) or 2.5 μM irestatin 9389 (lanes 5-8) and cultured under aerobic conditions for 18 hours (N) or shifted to hypoxia for the indicated times. Protein lysates were analyzed by Western blot analysis using antisera specific for ATF6 (top), CHOP/GADD153 (middle) or actin (bottom). Arrow indicates the cleaved, transcriptionally active form of ATF6. B. Cleavage of caspase-3 in irestatin-treated cells under hypoxia. HT1080 cells were cultured in normoxia (N) or under hypoxia for 36 hours (H 36) in absence or presence of irestatin 9389 (2.5 μM). Arrows indicate proteolytically cleaved caspase-3. C. Colony formation assay. HT1080 cells were treated as in B under normoxia (N) or hypoxia for 48 hours (H 48). Cells were harvested, counted, and allowed to grow under normal culture conditions for 11-12 days. Colonies were visualized with crystal violet staining. D. Quantification of clonogenic survival assay. Values represent the mean+/−SEM from at least 4 independent experiments. E. TUNEL staining of cells treated as in C. F. Quantification of TUNEL-positive cells. Values represent the mean+/− SEM from at least 3 experiments. […] Cells were harvested at the indicated times and counted by hemocytometer. Values represent the mean calculated from triplicate experiments+/−SEM.

XBP-luciferase reporter = assay: In vivo bioluminescence imaging of XBP-luciferase reporter tumor xenografts; design: species or system SCID mice
Description: HT1080 fibrosarcoma cells (2×10^6) stably expressing the XBP-luciferase reporter were implanted s.c. into severe combined immune deficient (SCID) mice. Ten minutes prior to imaging, mice were injected i.p. with D-luciferin (150 mg/kg) solubilized in PBS. Optical bioluminescence imaging was performed using the IVIS charged-coupled device camera system (Caliper Life Sciences, Hopkinton, Mass.). Mice were imaged for 1-4 minutes per acquisition scan. Signal intensities were analyzed using Living Image software (Caliper).
A. Irestatin 9389 impairs IRE1α activity in implanted tumor xenografts. Equal numbers (2×10^6) of XBP-luciferase or CMV-luciferase reporter cells were implanted s.c. into SCID mice. After one week, mice were treated with irestatin 9389 (50 mg/kg), followed by optical bioluminescence imaging. B. Inhibition of tumor growth by irestatin 9389. HT1080 s.c. tumor xenografts were established in SCID mice and allowed to reach a mean volume of 150 mm^3 before treatment. Irestatin 9389 (50 mg/kg) or vehicle control was administered q 2d by i.p. injection and continued for 2 weeks, for a total of 6 doses. Tumor volumes were calculated based on caliper measurements taken every 3-5 days. Data points represent the mean volume calculated from at least 7 tumors per group, with SEM shown in one direction. Mean mouse weights+/−SEM are shown in bottom graph. C.
The increased sensitivity of irestatin-treated cells to hypoxic stress in vitro indicate that selective inhibition of IRE1α signaling could impact tumor growth. […] In contrast, XBP-1s was not detected in normal pancreas specimens (0/20), and infrequently observed in chronic pancreatitis (1/29) (FIG. 15). To explore the effects to irestatin 9389 in vivo, we first established animal dosing parameters using real-time bioluminescence imaging of SCID mice that had been implanted subcutaneously (s.c.) with tumor cells stably expressing the XBP-luciferase reporter. […] The XBP-luciferase signal returned to basal levels by 24 hours after treatment. […] (FIG. 16).

Cc1csc(NC(=O)CSc2nc3c(c(C(F)(F)F)c2C#N)CCC3)n1 [Compound 9389]
proteolytic cleavage of ATF6 into active 50 kDa form (ATF6): significantly increased the proteolytic cleavage of ATF6 | decrease in viability ([1]; dox present (no Flag-XBP-1s)): ~60 fold | survival of hypoxic cells expressing Flag-XBP-1s ([1]; no dox): minimal effect on the survival | growth rate of HT1080 cells (HT1080 fibrosarcoma): negligible effect on the growth rate | time by which XBP-luciferase signal returned to basal levels (XBP-luciferase reporter; after treatment, 50-60 mg/kg): ≤ 24 h | duration of XBP-luciferase reporter inhibition after the injection (XBP-luciferase reporter; single doses of 50-60 mg/kg): 6 to 8 h | inhibition of XBP-luciferase reporter in tumors (XBP-luciferase reporter; single doses of 50-60 mg/kg): robustly inhibited
